{"source": "patent US9603928B2", "about": "“Medicinal composition for promoting synthesis of protoporphyrin IX” (SBI Pharmaceuticals Co., Ltd., priority 2013, dated 2017)", "type_in_all_cases": "cell-based", "key": {"[1]": {"test_system": "Multi-drug resistant Pseudomonas aeruginosa (MDRP: ATCC BAA-2110)", "test": "Number of MDRP bacteria after ALA + EDTA with or without PDT (LED 410 nm)", "settings": "no PDT, 18 hours of culture, ALA 1 mg/ml, EDTA 400 mg/ml where added, start 1×10^9 CFU/ml", "protocol": "Multi-drug resistant Pseudomonas aeruginosa (MDRP: ATCC BAA-2110) was cultured for 24 hours at 37° C. with tryptic soy broth medium (TBS: from DIFCO). Then, the TBS medium comprising MDRP at 1×10^9 CFU/ml was dispensed in a 12-well plate at 1 ml per well, and ALA was added to a final concentration of 1 mg/ml and EDTA was added to a final concentration of 400 mg/ml. These were divided into the group subjected to PDT (PDT group) and the group not subjected to PDT (non-PDT group) (each n=1). For the control group, only ALA at a final concentration of 1 mg/ml was added to 1 ml of the TBS medium comprising MDRP at 1×10^9 CFU/ml, and PDT was not carried out. The control group and the non-PDT group were cultured for 18 hours, and the number of bacteria in each well was counted. The PDT group was cultured for 18 hours, irradiated with LED (410 nm) at 50 J/cm^2, and then the number of bacteria was counted."}, "[2]": {"test_system": "Multi-drug resistant Pseudomonas aeruginosa (MDRP: BAA-2110)", "test": "Number of MDRP bacteria after ALA + chelating agent other than EDTA with or without LED irradiation (PDT)", "settings": "Irradiation No, average values", "protocol": "Multi-drug resistant Pseudomonas aeruginosa (MDRP: BAA-2110) was cultured in tryptic soy broth medium (TBS: from DIFCO) for 24 hours at 37° C. Next, the TBS medium comprising MDRP was dispensed in a 12-well dish at 1 ml per well (1×10^4−2×10^5 CFU/mL). ALA at a final concentration of 1 mg/ml and a chelating agent other than EDTA (2.5 mg/mL of citric acid, 2.5 mg/mL of malic acid, 1 mg/mL of diethylenetriaminepentaacetic acid (DTPA), 1 mg/mL of triethylenetetramine-N,N,N′,N″,N′″,N″′-hexaacetic acid, 1 mg/mL of N-(2-hydroxyethyl) iminodiacetic acid, and 1 mg/mL of deferoxamine mesylate, each at final concentration) were added to each dish. For the control group, only ALA at a final concentration of 1 mg/ml was added to 1 ml of the TBS medium comprising MDRP. Next, these were cultured for 5 hours, and the number of bacteria in each well was counted. The PDT group was cultured for 5 hours, and then irradiated with LED (410 nm) at 50 J/cm^2, after which the number of bacteria was counted, and further the number of bacteria at 19 hours after irradiation was also counted."}, "[3]": {"test_system": "Multi-drug resistant Pseudomonas aeruginosa (MDRP: ATCC BAA-2110)", "test": "HPLC measurement of coproporphyrinogen III (CPIII) and protoporphyrin IX (PpIX) in MDRP cultured with ALA / ALA + EDTA", "settings": "4 hours after start of culture, ALA 0.5 mg/ml, EDTA 400 mg/ml where added", "protocol": "Multi-drug resistant Pseudomonas aeruginosa (MDRP: ATCC BAA-2110) was placed in tryptic soy broth medium (TBS: from DIFCO), and cultured at 37° C. for 24 hours. With an absorptiometer, the TBS medium comprising the cultured MDRP was adjusted to 1×10^9 CFU (Colony forming unit)/ml. In a 12-well plate, the following solutions (1)-(3) were each prepared and cultured. (1): TBS medium comprising MDRP adjusted to 1×10^9 CFU/ml, (2): a solution of (1) and ALA added to a final concentration of 0.5 mg/ml, and (3): a solution of (1) and ALA added to a final concentration of 0.5 mg/ml and EDTA added to a final concentration of 400 mg/ml. The solutions were collected 4 hours after the start of culture, and suspended in 0.25 ml of PBS per 1 g of the pelleted bacteria. To 0.2 ml of the suspension, 0.01 ml of 50% acetic acid and 0.9 ml of DMF/IPA (100:1) were added, vortexed, and separated by centrifugation (14, 000 rpm, 5 min, 4° C.). The concentrations of coproporphyrinogen III (CPIII) and protoporphyrin IX (PpIX) in the supernatant after centrifugal separation were measured with HPLC."}, "[4]": {"settings": "supernatant of bacterial extract, HPLC"}}}
{"smiles": "NCC(=O)CCC(=O)O", "note": "[ALA, 5-aminolevulinic acid]", "values": [{"measurement": "Bacterial count (CFU/ml)", "setting": "[1]; listed as Control", "result": "4.2 × 10^9 CFU/ml"}, {"measurement": "Bacterial count (CFU/ml)", "setting": "[1]; listed as control", "result": "4.2×10^9 CFU/ml"}, {"measurement": "5 hours after addition of ALA + chelating agent (CFU/mL)", "setting": "[2]; ALA 1 mg/ml", "result": "3.6 × 10^5 CFU/mL"}, {"measurement": "19 hours after irradiation (CFU/mL)", "setting": "[2]; ALA 1 mg/ml", "result": "1.4 × 10^9 CFU/mL"}, {"measurement": "At the time of culture (CFU/mL)", "setting": "[2]; starting count", "result": "5.7 × 10^4 CFU/mL"}, {"measurement": "proportion of PpIX against CPIII", "setting": "[3]", "result": "approximately 5.5%"}, {"measurement": "CPIII", "setting": "[3]; [4]", "result": 889.6, "unit": "nM"}, {"measurement": "PpIX", "setting": "[3]; [4]", "result": 49.0, "unit": "nM"}]}
